The values below come from patent publication US20240254129A1, “HETEROCYCLIC COMPOUNDS AND USES THEREOF” (Kumquat Biosciences Inc., priority 2021, published 2024).

Assay [1] has as its target GST-tagged K-Ras mutant / His-tagged hSOS1 (Homo sapiens, UniProt P01116). Kind of assay: HTRF assay, K-Ras mutant / SOS1 interaction. It is filed as binding. The note with it: read-out: IC50 against mutant Kras. In a few lines:
(§1)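 GST-tagged K-Ras (mutant or wildtype) with anti-GST-Eu donor was mixed with His-hSOS1 and anti-6His-XL665 acceptor in HEPES pH 7.4 buffer with NaCl, DTT, BSA and Igepal. After ≥10 min, HTRF was read (ex 337 nm, em 620/665 nm); 665/620 ratios gave IC50 from duplicate dilution series.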
In general terms: In TR-FRET formats the signal depends on donor and acceptor labels being close together.

Assay [2] concerns the target T1, wildtype Kras / hSOS1 (Homo sapiens, UniProt P01116).
T1 construct: made in house; host or cells: E. coli BL21 (DE3)
The experiment in a line: HTRF assay, wildtype Kras / SOS1 interaction. Particulars: read-out: IC50 against wildtype Kras. Type of assay: binding. In a few lines: as §1

The mark [3] stands for this setting: compound nos. 102-196, general methodology of example 5.
Setting [4] is: compound nos. 201-213, general methodology of example 5.

Where two headings read alike, the source gives them in different places. Bounds are passed on as bounds.

Chain of GST-tagged K-Ras mutant / His-tagged hSOS1 (P01116 whole entry G12D, form open): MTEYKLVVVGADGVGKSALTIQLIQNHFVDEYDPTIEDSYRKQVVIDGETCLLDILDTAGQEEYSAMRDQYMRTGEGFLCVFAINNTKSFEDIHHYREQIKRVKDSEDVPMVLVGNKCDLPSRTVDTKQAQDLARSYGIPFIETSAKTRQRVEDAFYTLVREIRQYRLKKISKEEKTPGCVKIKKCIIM
T1 sequence (P01116 1-188 isoform P01116-2): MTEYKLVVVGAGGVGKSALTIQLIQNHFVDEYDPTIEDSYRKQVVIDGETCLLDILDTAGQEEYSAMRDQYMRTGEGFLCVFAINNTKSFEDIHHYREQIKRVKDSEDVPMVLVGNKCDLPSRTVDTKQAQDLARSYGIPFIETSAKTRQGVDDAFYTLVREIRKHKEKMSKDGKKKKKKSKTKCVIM

Consider `Cc1ccc2cnn(CC#N)c2c1-c1c(Cl)cc2c(N3CC4CCC(C3)N4)nc(OC[C@@]34CCCN3C[C@H](F)C4)nc2c1F` [Compound 549, 2-(7-(4-(3,8-diazabicyclo-[3.2.1]octan-3-yl)-6-chloro-8-fluoro-2-(((2R,7aS)-2-fluorotetrahydro-1H-pyrrol-izin-7a(5H)-yl)methoxy)-quinazolin-7-yl)-6-methyl-1H-indazol-1-yl)acetonitrile], for which the IC50 in assay [1] (compound nos. 401-703) and in assay [2] (compound nos. 401-703) was above 500 nM throughout.

For `Cc1ccnc(C(C)C)c1-n1c(=O)nc(N2CC3CCC(C2)N3)c2cc(F)c(-c3cc(O)cc4ccccc34)nc21` [Compound 567, 4-(3,8-diazabicyclo[3.2.1]-octan-3-yl)-6-fluoro-7-(3-hydroxynaphthalen-1-yl)-1-(2-isopropyl-4-methylpyri-din-3-yl)pyrido[2,3-d]pyrim-idin-2(1H)-one], the IC50 in assay [1] (compound nos. 401-703) and in assay [2] (compound nos. 401-703) was above 500 nM each time.

As for `Nc1nc2c(-c3c(Cl)cc4c(N5CCNCC(F)(F)C5)nc(OC[C@@]56CCCN5C[C@H](F)C6)nc4c3F)ccc(F)c2s1` [Compound 133, 4-(6-chloro-4-(6,6-difluoro-1,4-diazepan-1-yl)-8-fluoro-2-(((2R,7aS)-2-fluorotetrahydro-1H-pyrrolizin-7a(5H)-yl)methoxy)quinazolin-7-yl)-7-fluorobenzo[d]thiazol-2-amine], the IC50 in assay [1] (setting [3]) and in assay [2] (setting [3]) was below 500 nM throughout.

As to `N#CCCc1cc2c(N3CC4CCC(C3)N4)nc(OC[C@@]34CCCN3C[C@H](F)C4)nc2c(F)c1-c1ccc(F)c2sc(N)nc12` [Compound 496, 3-(7-(2-amino-7-fluoroben-zo[d]thiazol-4-yl)-4-(3,8-diazabicyclo[3.2.1]octan-3-yl)-8-fluoro-2-(((2R,7aS)-2-fluorotetrahydro-1H-pyrrol-izin-7a(5H)-yl)methoxy)-quinazolin-6-yl)propane-nitrile], the IC50 in assay [1] (compound nos. 401-703) and in assay [2] (compound nos. 401-703) was below 500 nM throughout.

As for `CN1CCC[C@H]1COc1nc(N2CCCC(F)C(F)C2)c2cc(Cl)c(-c3cccc4sc(N)nc34)c(F)c2n1` (stereo partly drawn) [Compound 573, 4-(6-chloro-4-(3,4-difluoro-azepan-1-yl)-8-fluoro-2-(((S)-1-methylpyrrolidin-2-yl)methoxy)quinazolin-7-yl)-benzo[d]thiazol-2-amine], the IC50 in assay [1] (compound nos. 401-703) was below 500 nM; in assay [2] (compound nos. 401-703) it was above 500 nM.

Turning to `CO[C@@H]1CN(C)C[C@H]1Oc1nc(N2CC3CCC(C2)N3)c2cc(Cl)c(-c3ccc(F)c4sc(N)nc34)c(F)c2n1` [Compound 448, 4-(4-(3,8-diazabicyclo-[3.2.1]-octan-3-yl)-6-chloro-8-fluoro-2-(((3R,4R)-4-methoxy-1-methylpyrrolidin-3-yl)oxy)quinazolin-7-yl)-7-fluorobenzo[d]thiazol-2-amine], the IC50 in assay [1] (compound nos. 401-703) and in assay [2] (compound nos. 401-703) was below 500 nM in each case.

Take `Nc1cc(-c2c(Cl)cc3c(N4CC5CCC(C4)N5)nc(OCC45CCCN4CCC5)nc3c2F)c2ccccc2n1` [Compound 636, 4-(4-(3,8-diazabicyclo-[3.2.1]octan-3-yl)-6-chloro-8-fluoro-2-((tetrahydro-1H-pyrrolizin-7a(5H)-yl)meth-oxy)quinazolin-7-yl)quin-olin-2-amine]: the IC50 in assay [1] (compound nos. 401-703) and in assay [2] (compound nos. 401-703) was above 500 nM in each case.

On to `Nc1ccc(-c2ccccc2-c2c(Cl)cc3c(N4CCCCCC4)nc(OCC45CCCN4CCC5)nc3c2F)cc1` [Compound 450, 2′-(4-(azepan-1-yl)-6-chloro-8-fluoro-2-((tetrahydro-1H-pyrrolizin-7a(5H)-yl)meth-oxy)quinazolin-7-yl)-[1,1′-biphenyl]-4-amine], for which the values for the half-inhibitory concentration (IC50) in assay [1] (compound nos. 401-703) and in assay [2] (compound nos. 401-703) were above 500 nM and below 500 nM, respectively.

Take `Nc1nc2c(-c3ccc4c(N5CC6CCC(C5)N6)nc(OC[C@@]56CCCN5C[C@H](F)C6)nc4c3F)cccc2o1` [Compound 634, 4-(4-(3,8-diazabicyclo-[3.2.1]octan-3-yl)-8-fluoro-2-(((2R,7aS)-2-fluorotetra-hydro-1H-pyrrolizin-7a(5H)-yl)methoxy)quinazolin-7-yl)benzo[d]oxazol-2-amine]: the IC50 in assay [1] (compound nos. 401-703) and in assay [2] (compound nos. 401-703) was above 500 nM throughout.

With `Nc1ccc2cccc(-c3c(Cl)cc4c(N5CC6CCC(C5)N6)nc(OCC56CCCN5CCC6)nc4c3F)c2n1` [Compound 597, 8-(4-(3,8-diazabicyclo-[3.2.1]octan-3-yl)-6-chloro-8-fluoro-2-((tetrahydro-1H-pyrrolizin-7a(5H)-yl)meth-oxy)quinazolin-7-yl)quin-olin-2-amine], the IC50 in assay [1] (compound nos. 401-703) and in assay [2] (compound nos. 401-703) was above 500 nM throughout.

Take `CN1CCc2c(cccc2Oc2nc(N3CCNCC(F)(F)C3)c3cc(Cl)c(-c4cccc5sc(N)nc45)c(F)c3n2)C1` [Compound 153, 4-(6-chloro-4-(6,6-difluoro-1,4-diazepan-1-yl)-8-fluoro-2-((2-methyl-1,2,3,4-tetra-hydroisoquinolin-5-yl)oxy)-quinazolin-7-yl)benzo[d]-thiazol-2-amine]: the IC50 in assay [1] (setting [3]) and in assay [2] (setting [3]) was above 500 nM throughout.

As to `CN1CCC[C@H]1COc1nc(N2CCCC(C(=O)O)CC2)c2cc(Cl)c(-c3cccc4sc(N)nc34)c(F)c2n1` (stereo partly drawn) [Compound 414, 1-(7-(2-aminobenzo[d]-thiazol-4-yl)-6-chloro-8-fluoro-2-(((S)-1-methyl-pyrrolidin-2-yl)methoxy)-quinazolin-4-yl)azepane-4-carboxylic acid], the IC50 in assay [1] (compound nos. 401-703) was above 500 nM; in assay [2] (compound nos. 401-703) it was below 500 nM.

For the compound `N#Cc1c(N)sc2c(F)ccc(-c3c(Cl)cc4c(N5CCCNCC5)nc(OC[C@@]56CCCN5C[C@H](F)C6)nc4c3F)c12` [Compound 557, 2-amino-4-(6-chloro-4-(1,4-diazepan-1-yl)-8-fluoro-2-(((2R,7aS)-2-fluorotetra-hydro-1H-pyrrolizin-7a(5H)-yl)methoxy)quinazolin-7-yl)-7-fluorobenzo[b]thio-phene-3-carbonitrile], the IC50 in assay [1] (compound nos. 401-703) was below 500 nM; in assay [2] (compound nos. 401-703), above 500 nM.

In the case of `Nc1nc2c(-c3c(Cl)cc4c(N5CC6CCC(C5)N6)nc(OC[C@@]56CCCN5C[C@H](F)C6)nc4c3F)cccc2cc1F` [Compound 665, 8-(4-(3,8-diazabicyclo-[3.2.1]octan-3-yl)-6-chloro-8-fluoro-2-(((2R,7aS)-2-fluorotetrahydro-1H-pyrrol-izin-7a(5H)-yl)methoxy)-quinazolin-7-yl)-3-fluoro-quinolin-2-amine], the IC50 in assay [1] (compound nos. 401-703) and in assay [2] (compound nos. 401-703) was above 500 nM each time.

As for `Cc1nc2c(-c3c(Cl)cc4c(N5CCNCC(F)(F)C5)nc(OC[C@@H]5CCCN5C)nc4c3F)cccc2s1` [Compound 138, 4-(6-chloro-4-(6,6-difluoro-1,4-diazepan-1-yl)-8-fluoro-2-(((S)-1-methylpyrrolidin-2-yl)methoxy)quinazolin-7-yl)-2-methylbenzo[d]thiazole], the IC50 in assay [1] (setting [3]) and in assay [2] (setting [3]) was above 500 nM each time.

Take `COc1nc2c(N3C[C@H]4CC[C@@H](C3)N4)nc(OCC34CCCN3CCC4)nc2cc1-c1cc(O)cc2ccccc12` [Compound 545, 4-(4-((1R,5S)-3,8-diazabicyclo[3.2.1]octan-3-yl)-6-methoxy-2-((tetrahydro-1H-pyrrolizin-7a(5H)-yl)methoxy)pyrido[3,2-d]pyrimidin-7-yl)naphthalen-2-ol]: the IC50 in assay [1] (compound nos. 401-703) and in assay [2] (compound nos. 401-703) was above 500 nM throughout.

Regarding `Nc1nc2ccccc2n1-c1ccc2c(N3CC4CCC(C3)N4)nc(OCC34CCCN3CCC4)nc2c1F` [Compound 525, 1-(4-(3,8-diazabicyclo-[3.2.1]octan-3-yl)-8-fluoro-2-((tetrahydro-1H-pyrrol-izin-7a(5H)-yl)methoxy)-quin-azolin-7-yl)-1H-benzo-[d]imidazol-2-amine], the IC50 in assay [1] (compound nos. 401-703) and in assay [2] (compound nos. 401-703) was above 500 nM throughout.

For `Nc1nc2c(-c3c(Cl)cc4c(N5CC6CNCC(C5)N6)nc(OC[C@@]56CCCN5C[C@H](F)C6)nc4c3F)ccc(F)c2s1` [Compound 639, 4-(4-(3,7,9-triazabicyclo-[3.3.1]nonan-3-yl)-6-chloro-8-fluoro-2-(((2R,7aS)-2-fluorotetrahydro-1H-pyrrol-izin-7a(5H)-yl)methoxy)-quinazolin-7-yl)-7-fluoro-benzo[d]thiazol-2-amine], the IC50 in assay [1] (compound nos. 401-703) was below 500 nM; in assay [2] (compound nos. 401-703), above 500 nM.

As to `Fc1c(-c2cccc3c2CCCS3)c(Cl)cc2c(N3CC4CCC(C3)N4)nc(OC[C@@]34CCCN3C[C@H](F)C4)nc12` [Compound 637, 4-(3,8-diazabicyclo[3.2.1]-octan-3-yl)-6-chloro-8-fluoro-2-(((2R,7aS)-2-fluoro-tetrahydro-1H-pyrrolizin-7a(5H)-yl)methoxy)-7-(thio-chroman-5-yl)quinazoline], the IC50 in assay [1] (compound nos. 401-703) and in assay [2] (compound nos. 401-703) was above 500 nM in each case.

`Nc1nc2c(-c3c(Cl)cc4c(N5C[C@H]6CC[C@@H](C5)N6)nc(OCC5(CN6CCCC6)CC5)nc4c3F)ccc(F)c2s1` [Compound 211, 4-(4-((1R,5S)-3,8-diaza-bicyclo[3.2.1]octan-3-yl)-6-chloro-8-fluoro-2-((1-(pyrrolidin-1-ylmethyl)-cyclopropyl)methoxy)quin-azolin-7-yl)-7-fluorobenzo-[d]thiazol-2-amine]: the IC50 in assay [1] (setting [4]) and in assay [2] (setting [4]) was below 1500 nM each time.

On to `Nc1nc2c(-c3c(Cl)cc4c(N5CCNCC(F)(F)C5)ncnc4c3F)cccc2s1` [Compound 110, 4-(6-chloro-4-(6,6-difluoro-1,4-diazepan-1-yl)-8-fluoro-quinazolin-7-yl)benzo[d]-thiazol-2-amine], for which the IC50 in assay [1] (setting [3]) and in assay [2] (setting [3]) was above 500 nM in each case.

By IC50 is commonly meant the concentration at which inhibition is half-maximal.
